This is an account of results in patent US11964962B2, “Substituted pyridazinone compound and use thereof” (SHANDONG FIRST MEDICAL UNIVERSITY & SHANDONG ACADEMY OF …, priority 2020, dated 2024).

One may read the EC50 as the concentration needed to bring the measured effect to its halfway point. As a reminder, the microsomal CLint is the capacity of the preparation to metabolise the compound, expressed as a volume cleared per time.

Data set [1] concerns the target T1, THRβ (Homo sapiens, UniProt P10828).
T1 construct: GST
T1 sequence (P10828 1-461): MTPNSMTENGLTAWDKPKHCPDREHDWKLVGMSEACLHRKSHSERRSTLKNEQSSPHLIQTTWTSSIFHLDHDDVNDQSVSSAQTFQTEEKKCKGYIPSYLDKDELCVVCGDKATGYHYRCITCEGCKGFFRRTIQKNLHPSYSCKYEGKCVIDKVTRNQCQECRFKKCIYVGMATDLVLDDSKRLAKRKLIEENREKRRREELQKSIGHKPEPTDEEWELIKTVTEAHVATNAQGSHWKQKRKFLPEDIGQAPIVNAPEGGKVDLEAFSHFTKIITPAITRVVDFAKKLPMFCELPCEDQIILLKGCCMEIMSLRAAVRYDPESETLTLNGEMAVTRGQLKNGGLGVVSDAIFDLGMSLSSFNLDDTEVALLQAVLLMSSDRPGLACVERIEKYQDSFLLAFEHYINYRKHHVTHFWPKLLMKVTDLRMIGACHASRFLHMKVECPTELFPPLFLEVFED
T1 sequence (P19793 225-462 partner limits assumed): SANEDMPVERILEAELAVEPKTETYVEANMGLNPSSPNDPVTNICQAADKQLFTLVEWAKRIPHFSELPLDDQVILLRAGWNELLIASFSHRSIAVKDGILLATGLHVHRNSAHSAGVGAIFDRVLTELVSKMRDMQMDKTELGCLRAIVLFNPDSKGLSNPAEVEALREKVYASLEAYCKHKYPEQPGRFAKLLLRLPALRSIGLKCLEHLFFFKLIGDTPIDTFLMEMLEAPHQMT
T1 sequence (Q15596 679-703 partner limits assumed): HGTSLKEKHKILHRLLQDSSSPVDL
Put plainly: THRβ agonist activity, fluorescence ratio 665 nm/615 nm with EE-RxRα and biotin-GRIP. Particulars: incubated overnight at 4° C. Format: biochemical. The method, then:
(§1) Test compound was dissolved and serially diluted in dimethyl sulfoxide (DMSO) with a final compound concentration of 60 mM. […] Buffer 1 was employed again to prepare EE-RxRα at the same concentrations as those of THRα and THRβ, respectively. Buffer 1+5% DMSO was employed to prepare biotin-GRIP (THRα: […], THRβ: 100 nM). Buffer 2 (50 mM Tris, pH 7.4, 100 mM NaCl, and 0.2 mg/mL BSA) was employed to prepare a mixed solution of 2×Eu-anti-GST and 2×streptavidin-d2. 5 μL of the THRα (THRβ) solution+5 μL of EE-RxRα+2.5 μL of the DMSO solution of test compound+2.5 μL of biotin-GRIP+5 μL of the mixed solution of 2×Eu-anti-GST and 2×streptavidin-d2 was employed as the reaction system, and incubated overnight at 4° C.

For data set [2], the system named is L929 mouse fibroblasts. Put plainly: Cytotoxicity in normal cell line L929 (CCK-8 proliferation assay). Format: cell-based. The conditions noted are these: 48 h treatment, CCK-8, absorbance 450 nm, read-out: IC50 for proliferation of L929 cell lines. The method, then: Concentration of L929 mouse fibroblasts was adjusted to 4×10^5 cells/mL. The cells were seeded in a 96 well plate with […] per well. Wells not supplied with the cells (blank group) were provided. The cells were cultivated on the plate and were allowed to adhere overnight. Then, cell culture supernatants were collected, and 200 μL of test compound at various concentrations were added to the corresponding cell culture supernatants. Control and compound-treated cell culture supernatants were included in each experiment with triplicate wells for each experimental group, and were cultivated for a further 48 h. Then, the resulting cell culture supernatants were again collected, and fresh medium supplemented with 10% CCK-8 solution was added thereto. Incubation for an additional 3 h was carried out. Thereafter, the absorbance of the medium was measured at 450 nm wavelength, and the inhibitory rate of cell proliferation by test compound was calculated according to the equation below: R (%)=1−(Aexperiment−Ablank)/(Acontrol−Ablank)
A general note: Tetrazolium assays rely on reduction of a dye to a coloured formazan, in cell work by metabolically active cells.

The target of data set [3] is T2, THRα (Homo sapiens, UniProt P10827).
T2 construct: GST
T2 sequence (P10827 1-410 isoform P10827-2): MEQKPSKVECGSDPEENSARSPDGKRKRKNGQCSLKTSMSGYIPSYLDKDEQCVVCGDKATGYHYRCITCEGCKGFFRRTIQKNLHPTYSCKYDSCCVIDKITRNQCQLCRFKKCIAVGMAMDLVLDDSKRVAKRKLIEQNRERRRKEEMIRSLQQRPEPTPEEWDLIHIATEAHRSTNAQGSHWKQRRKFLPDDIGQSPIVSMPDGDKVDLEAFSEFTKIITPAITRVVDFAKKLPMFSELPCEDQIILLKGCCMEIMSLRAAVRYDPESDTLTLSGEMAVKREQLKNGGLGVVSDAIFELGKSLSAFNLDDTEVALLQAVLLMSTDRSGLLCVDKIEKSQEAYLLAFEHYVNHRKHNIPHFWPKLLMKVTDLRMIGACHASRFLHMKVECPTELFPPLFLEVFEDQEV
T2 sequence (P19793 225-462 partner limits assumed): T1 sequence (P19793 225-462 partner limits assumed)
T2 sequence (Q15596 679-703 partner limits assumed): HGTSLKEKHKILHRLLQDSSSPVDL
The experiment in a line: THRα agonist activity, fluorescence ratio 665 nm/615 nm with EE-RxRα and biotin-GRIP. The data set is classed as biochemical. The conditions noted are these: incubated overnight at 4° C. The method, then: as §1

Data set [4] is described as follows: Metabolic stability in human liver microsomes. Format: in vitro ADME. Particulars: pH 7.4, 37° C.; for half-life: read-out: T ½. The method, then:
Microsomal incubations were performed in 0.05 M Tris-KCl buffer (pH 7.4) in the presence of test compound dissolved in DMSO at a series of concentrations, rat liver microsomes (RLMs) (S9 or human liver microsomes (HLMs)), rat liver cytoplasms (RLCs) (human liver cytoplasms (HLCs, 0.5 mg/mL)), 1.3 mM β-nicotinamide adenine dinucleotide phosphate sodium salt (NADP), 3.3 mM D-glucose-6-phosphate disodium salt (G-6-P), 0.4 units/mL glucose-6-phosphate dehydrogenase (G-6-PDH, type XII), and 3.3 mM MgCl2. The volume of the organic solvents was not more than 1% by volume with respect to the reaction system. After a preincubation of the mixture in a rotating mixer at 37° C. and 850 rpm for 3 min, hepatic microsomes were added to initiate incubation reactions, which were conducted at 37° C. for 30 min, 60 min, or 90 min, respectively. After the incubations were complete, the reactions were terminated by addition of an equal volume of ice cold acetonitrile, followed by addition of 20 μL of a 1 mg/mL solution of geniposide (internal standard) in methanol and then by centrifugation at 10,000 rpm for 10 min to precipitate protein. The […] was blown dry with nitrogen at 40° C. and then dissolved in 100 μL of methanol, which was used as mobile phase. 10 μL of the solution was sampled and analyzed by HPLC.
On the technique in general: Microsomes from liver hold many membrane-bound enzymes, among them those of drug oxidation.

As to `N#Cc1nn(-c2cc(Cl)c(Oc3cc(CC4CCCC4)c(=O)[nH]n3)c(Cl)c2)c(=O)[nH]c1=O` [Compound 6], the EC50 in data set [1] was 0.0949 µM. Moreover, the IC50 in data set [2] is above 50 µM. Also, the EC50 in data set [3] worked out at 2.75 µM. In data set [4], the microsomal CLint amounted to 0.18 µL/min/mg and the half-life turned out to be 16.3 h.

In the case of `N#Cc1nn(-c2ccc(Oc3cc(CC4CCCC4)c(=O)[nH]n3)c(F)c2)c(=O)[nH]c1=O` [Compound 7], in data set [1], the 50% effective concentration (EC50) is 0.013 µM. For the same compound, in data set [2], the IC50 is above 50 µM. Moreover, the EC50 in data set [3] stood at 10 µM. In data set [4], the microsomal CLint was 0.12 µL/min/mg and the half-life amounted to 18.3 h.

In the case of `Cc1c(Oc2ccc(-n3nc(C#N)c(=O)[nH]c3=O)cc2Cl)n[nH]c(=O)c1C` [Compound 24], the EC50 amounted to 0.0101 µM in data set [1] and 3.29 µM in data set [3]. Also, the IC50 in data set [2] was above 50 µM. Moreover, the microsomal CLint in data set [4] is 0.452 µL/min/mg. The half-life in data set [4] was 14.5 h.

Regarding `CC(C)c1cc(=O)[nH]nc1Oc1ccc(-n2nc(C#N)c(=O)[nH]c2=O)c(Cl)c1` [Compound 36], the EC50 in data set [1] is 4.16 µM; in data set [3] it was 13.8 µM. Besides, in data set [2], the IC50 is above 50 µM.

For `N#Cc1nn(-c2ccc(Oc3n[nH]c(=O)cc3C3CC3)c(Cl)c2)c(=O)[nH]c1=O` [Compound 37], the EC50 in data set [1] is 3.22 µM; in data set [3], 0.001 µM. Besides, the IC50 in data set [2] is above 50 µM.

`N#Cc1nn(-c2cc(Cl)c(Oc3n[nH]c(=O)cc3C3CCCC3)c(Cl)c2)c(=O)[nH]c1=O` [Compound 38]: the 50% effective concentration (EC50) in data set [1] came to 0.783 µM; in data set [3], 4.66 µM. For the same compound, the IC50 in data set [2] was above 50 µM.

Turning to `N#Cc1nn(-c2ccc(Oc3n[nH]c(=O)cc3C3CCCC3)c(Cl)c2)c(=O)[nH]c1=O` [Compound 39], the EC50 in data set [1] was determined as 0.583 µM; in data set [3] it was 3.22 µM. In addition, the IC50 in data set [2] is above 50 µM.

With `CC(C)c1cc(Oc2cc(Cl)c(-n3cc(C#N)c(=O)[nH]c3=O)cc2Cl)n[nH]c1=O` [Compound 40], the EC50 in data set [1] is above 63 µM; in data set [3], 24.1 µM. For the same compound, the IC50 in data set [2] is above 50 µM.

Take `CC(C)c1cc(Oc2ccc(-n3cc(C#N)c(=O)[nH]c3=O)c(Cl)c2)n[nH]c1=O` [Compound 41]: the EC50 in data set [1] is above 60 µM; in data set [3], 0.001 µM. For the same compound, in data set [2], the IC50 was above 50 µM.

On to `N#Cc1cn(-c2cc(Cl)c(Oc3cc(C4CCC4)c(=O)[nH]n3)c(Cl)c2)c(=O)[nH]c1=O` [Compound 42, 1-(3,5-dichloro-4-((5-cyclobutyl-6-oxo-1,6-dihydropyridazin-3-yl)oxy)phenyl)-2,4-dioxo-1,2,3,4-tetrahydropyrimidine-5-carbonitrile], for which the results for the EC50 in data set [1] and in data set [3] were 0.0257 µM and 1.81 µM, respectively. Besides, in data set [2], the IC50 was above 50 µM.

Consider `CC(C)(C)Cc1cc(Oc2c(Cl)cc(-n3cc(C#N)c(=O)[nH]c3=O)cc2Cl)n[nH]c1=O` [Compound 43], for which the EC50 in data set [1] is 0.0403 µM; in data set [3] it was 6.62 µM. Besides, the IC50 in data set [2] is above 50 µM.

On to `CC(C)(C)Cc1cc(Oc2cc(Cl)c(-n3cc(C#N)c(=O)[nH]c3=O)cc2Cl)n[nH]c1=O` [Compound 44], for which the EC50 in data set [1] was determined as 0.042 µM; in data set [3], 2.32 µM. Moreover, in data set [2], the IC50 is above 50 µM.

As to `COc1cc(-n2nc(C#N)c(=O)[nH]c2=O)ccc1Oc1n[nH]c(=O)c(C)c1C` [Compound 46], the EC50 in data set [1] is 1.4 µM; in data set [3] it was 50.8 µM. Also, the IC50 in data set [2] is above 50 µM.

As for `CC(C)c1cc(Oc2c(Cl)cc(-c3c[nH]c(=O)c(O)c3)cc2Cl)n[nH]c1=O` [Compound 47, 6-(2,6-dichloro-4-(5-hydroxy-6-oxo-1,6-dihydropyridin-3-yl)phenoxy)-4-isopropylpyridazin-3(2H)-one], the EC50 in data set [1] worked out at 1.65 µM; in data set [3], 17.6 µM. The IC50 in data set [2] is above 50 µM.

Take `CC(C)(C)c1cc(Oc2c(Cl)cc(-c3c[nH]c(=O)c(O)c3)cc2Cl)n[nH]c1=O` [Compound 48]: the results for the EC50 in data set [1] and in data set [3] were 0.745 µM and 3.66 µM, respectively. The IC50 in data set [2] was above 50 µM.

With `CC(C)c1cc(Oc2c(Cl)cc(-c3nn[nH]n3)cc2Cl)n[nH]c1=O` [Compound 49, 6-(2,6-dichloro-4-(2H-tetrazol-5-yl)phenoxy)-4-isopropylpyridazin-3(2H)-one], the results for the EC50 in data set [1] and in data set [3] were 0.254 µM and 3.32 µM, respectively. Besides, in data set [2], the IC50 was above 50 µM.

As to `CC(C)(C)c1cc(Oc2c(Cl)cc(-c3nn[nH]n3)cc2Cl)n[nH]c1=O` [Compound 50], the EC50 in data set [1] worked out at 0.465 µM; in data set [3] it was 2.59 µM. The IC50 in data set [2] is above 50 µM.

For `CC(C)c1cc(Oc2c(Cl)cc(-n3nc(C#N)c(=O)[nH]c3=O)cc2Cl)n[nH]c1=O` [MGL-3196, Resmetirom, reference compound], in data set [4], the microsomal CLint is 2.21 µL/min/mg and the half-life was below 6.67 h.
